Entries after “also recorded” stand apart in the source; their conditions may differ.
Experiments:
Type in all cases: cell-based, Human
Hs746T cells [1] = assay: in vitro scratch wound-healing (migration) assay; conditions: LY2157299 50 μM; wound width after 72 hours
Method: Migration assay: Hs746T and NCI-N87 cells were grown into monolayers in a culture medium containing 10% FBS and 1% antibiotics. When confluency reached 70%, the cell monolayers were scratched with a 100-μl pipette tip. After 72 hours, the wound width was measured and normalized by the wound width measured immediately after scratching. LY2157299 (50 μM) was administered to evaluate the effect of the TGF-β inhibitor on cell migration.

Hs746T cells [2] = assay: invasion assay (HUVEC monolayer transwell); conditions: LY2157299 50 μM; 48 hours incubation
Method: Invasion assay: For the assay, 2×10^4 HUVEC cells were placed in a culture medium (M199) in a fibronectin-coated transwell, followed by coating the bottom of the transwell with 0.2% gelatin and cell culture for 48 hours until monolayer formation. Thereafter, 1×10^5/50 μl Hs746T and NCI-N87 cells containing FBS-free CellTracker™ (Molecular Probes, C2925) were separately added to the transwell. A culture medium containing 10% FBS was added to the lower chamber. After incubation for 48 hours, upper cells of the membrane were removed using a cotton swab. Cells on the lower membrane were lysed in 200 μl of a lysis buffer at room temperature for 2 hours to 3 hours. Fluorescence was measured with Ex/Em 492/517. To examine the effect of a TGF-β inhibitor on cell invasion ability, 50 μM of LY2157299 (AdooQ, California, USA) was administered.

Hs746T cells [3] = assay: in vitro tumor spheroid formation assay; conditions: LY2157299 50 μM; 30 days of cell culture
Method: Tumor spheroid formation assay: Ten cells were cultured in 50 μl of DMEM/F12 (Gibco) supplemented with bFGF, EGF, B27, 10% FBS, and 1% antibiotics in a 96-well plate. After 30 days of cell culture, the number of tumor spheroids in each well was counted. In addition, LY2157299 (50 μM) was administered to examine the effect of the TGF-β inhibitor on tumor sphere formation.

Cc1cccc(-c2nn3c(c2-c2ccnc4ccc(C(N)=O)cc24)CCC3)n1 [LY2157299]
delayed; also recorded: suppression: wound-healing ability of Hs746T cells (Hs746T cells [1]) | invasion ability of Hs746T cells (Hs746T cells [2]) | 3D spheroid formation ability of Hs746T cells (Hs746T cells [3])

Reference: patent US11365450B2, “Group classification and prognosis prediction system based on biological characteristics of gastric cancer” (Novomics Co., Ltd., priority 2017, dated 2022)
